This is an account of results in patent publication US8669266B2, “Quinoline-carboxamide derivatives as P2Y12 antagonists” (Sanofi, priority 2007, dated 2014).

For one assay, the system named is human platelet rich plasma. Briefly: Inhibition of human platelet aggregation, 96-well assay (ADP-induced, platelet rich plasma). Type of assay: cell-based. To be noted: 20 min, 96-well plate, human PRP, aggregation induced by ADP, AUC of absorbance over 20 minutes, 37° C. As to the method:
Alternatively to a binding assay which measures a compound's ability to bind to the P2Y12 receptor, the effect on cellular function was also determined. This ability of the compound was evaluated in two platelet aggregation assays: in 96-well plates and with the “Born”-method using single cuvettes.
Whole blood was collected from healthy volunteers using 20 ml syringes containing 2 ml of ACD-A Aqua-Citrat-Dextrose-A, Fresenius). The anticoagulated whole blood was transferred into 15 ml polypropylene conical tubes (10 ml per tube). The tubes were centrifuged for 15 minutes at 150×g at RT without using the centrifuge brake. This procedure leads to a pellet of cellular components and a supernatant of platelet rich plasma (PRP). The PRP layer was collected from each tube and pooled for each donor. To avoid carry over of cellular components following centrifugation, approximately 5 ml of PRP was left in the tube. The platelet concentration was determined using a Coulter Counter.
The 15 ml tubes containing the pellet of cellular components were centrifuged again for 10 minutes at 1940×g. This pelleted out most particulate blood constituents remaining, leaving a layer of Platelet Poor Plasma (PPP). The PPP was collected for each donor. The PRP layer, previously set aside, was diluted with PPP to a final concentration of approximately 3×E8 platelets/ml with the PPP.
The human platelet aggregation assay is performed in 96-well plates using a microtiter plate reader (SpectraMax Plus 384 with SoftMax Pro software from Molecular Devices).
In the plate 15 μl of test compound at 10× final concentration in NaCl is mixed with 120 μl fresh PRP and incubated for 5 minutes. Following that incubation period, 15 μl of 40 μM ADP is added to the reaction mix. This addition of ADP is sufficient to induce aggregation in the absence of an inhibitor. The plates are then transferred to the microplate reader and aggregation is measured over 20 minutes. The instrument settings include: Absorbance at 650 nm, run time 20 minutes with readings in 1-minute intervals and 50 seconds shaking between readings all performed at 37° C. Results of the assay are expressed as % inhibition, and are calculated using area under curve (AUC) of the absorbance over 20 minutes.
Compound `CCNC(=O)[C@@H]1CCCN1C(=O)COc1cc(C(=O)N[C@@H](CCC(=O)O)C(=O)N2CCN(C(=O)OCC)CC2)nc2cccc(F)c12` [Example 179, 4-[(S)-4-Carboxy-2-({4-[2-((S)-2-ethylcarbamoyl-pyrrolidin-1-yl)-2-oxo-ethoxy]-5-fluoro-quinoline-2-carbonyl}-amino)-butyryl]-piperazine-1-carboxylic acid ethyl ester] showed an IC50 of 30 nM.
Same read-out and setting: as for `CCCCOC(=O)N1CCN(C(=O)[C@H](CCC(=O)O)NC(=O)c2cc(OCC(=O)N3CC(O)C3)c3ccc(C)cc3n2)CC1` [Example 472, 4-[(S)-4-Carboxy-2-({4-[2-(3-hydroxy-azetidin-1-yl)-2-oxo-ethoxy]-7-methyl-quinoline-2-carbonyl}-amino)-butyryl]-piperazine-1-carboxylic acid butyl ester], the figure is 65 nM.
The same measure, in the same setting: as for `CCOC(=O)N1CCN(C(=O)[C@H](CCC(=O)O)NC(=O)c2cc(OCC(=O)N3CCC[C@H]3C(=O)NCC3CCC3)c3ccc(C)cc3n2)CC1` [Example 308, 4-{(S)-4-Carboxy-2-[(4-{2-[(S)-2-(cyclobutylmethyl-carbamoyl)-pyrrolidin-1-yl]-2-oxo-ethoxy}-7-methyl-quinoline-2-carbonyl)-amino]-butyryl}-piperazine-1-carboxylic acid ethyl ester], the figure is 60 nM; as for `CCOC(=O)N1CCN(C(=O)[C@H](CCC(=O)O)NC(=O)c2cc(OCC(=O)N3CCC(O)CC3)c3ccc(C)cc3n2)CC1` [Example 10, 4-[(S)-4-Carboxy-2-({4-[2-(4-hydroxy-piperidin-1-yl)-2-oxo-ethoxy]-7-methyl-quinoline-2-carbonyl}-amino)-butyryl]-piperazine-1-carboxylic acid ethyl ester], 180 nM; as for `CCCCOC(=O)N1CCN(C(=O)[C@H](CCC(=O)O)NC(=O)c2cc(OCC(=O)N3CCC[C@H]3C#N)c3ccc(C)cc3n2)CC1` [Example 460, 4-[(S)-4-Carboxy-2-({4-[2-((S)-2-cyano-pyrrolidin-1-yl)-2-oxo-ethoxy]-7-methyl-quinoline-2-carbonyl}-amino)-butyryl]-piperazine-1-carboxylic acid butyl ester], 73 nM.

In the next assay the target is human P2Y12 receptor (Homo sapiens (Human), UniProt Q9H244). Briefly: Human P2Y12 recombinant cell membrane binding assay with 33P 2MeS-ADP. To be noted: CHO cell membranes with recombinant human P2Y12; competition against 33P 2MeS-ADP. The method, then: The ability of the compounds of the formula I to inhibit the P2Y12 receptor can be assessed by determining the concentration of the compound of the formula I that binds to the human P2Y12 Recombinant Cell Membrane Binding Assay with 33P 2MeS-ADP.
human P2Y12 receptor, sequence (Q9H244 whole entry): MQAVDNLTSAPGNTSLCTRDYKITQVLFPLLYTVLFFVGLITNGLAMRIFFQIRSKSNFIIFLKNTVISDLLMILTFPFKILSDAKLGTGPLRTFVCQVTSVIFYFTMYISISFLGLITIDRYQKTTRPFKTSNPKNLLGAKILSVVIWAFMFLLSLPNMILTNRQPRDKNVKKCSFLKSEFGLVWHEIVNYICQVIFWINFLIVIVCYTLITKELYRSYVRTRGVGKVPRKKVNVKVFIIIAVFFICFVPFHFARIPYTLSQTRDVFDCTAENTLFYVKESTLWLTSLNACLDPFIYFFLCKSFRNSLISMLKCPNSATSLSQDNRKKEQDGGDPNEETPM
Human P2Y12 Recombinant Cell Membrane Binding Assay
The ability of a test compound to bind to the P2Y12 receptor was evaluated in a recombinant cell membrane binding assay. In this competitive binding assay, the test compound competed against a radiolabeled agonist for binding to the P2Y12 receptor, expressed on the cell membrane. Inhibition of binding of the labeled material was measured and correlated to the amount and potency of the test compound.
As source of P2Y12, a membrane preparation was prepared from Chinese Hamster Ovary (CHO) cells with recombinant expression of the human P2Y12 receptor according to standard procedures.
Next, wells were washed four times with 400 μl/well of stop buffer on a plate vacuum. The plate was disassembled and allowed to air dry overnight with the filter side up over night. […] The top of the filter plate was sealed with plastic plate covers. The sealed filter plate were incubated 2 hours at RT. A Microbeta Scintillation Counter was used to measure counts.
Compounds were diluted as 10 mM DMSO stocks and tested in a four-point, five-fold dilution series run in triplicate beginning at 10 μM, final concentration. Data were analyzed using a four-parameter curve fit with a fixed minimum and maximum experimentally defined as the average positive and negative controls on each plate.
For the compound `Cc1ccc2c(OCC(=O)N3CCC[C@H]3C(=O)NC3CCC3)cc(C(=O)NCC(=O)N3CCN(C(=O)OCCC(F)(F)F)CC3)nc2c1` [Example 679, 4-[2-({4-[2-((S)-2-Cyclobutylcarbamoyl-pyrrolidin-1-yl)-2-oxo-ethoxy]-7-methyl-quinoline-2-carbonyl}-amino)-acetyl]-piperazine-1-carboxylic acid 3,3,3-trifluoro-propyl ester], the IC50 turned out to be 3 nM.

As usually defined, the IC50 is the concentration that inhibits the measured activity by half.
